Data as given in ChEMBL document CHEMBL3045538, “Amino acid chemistry in crop protection” (2010).
Values after ≈ are worked out from the molar mass of the structure shown.

How the values were obtained:
Type in all cases: functional
Plasmopara viticola = experiment: Fungicidal activity against Plasmopara viticola
Phytophthora infestans = experiment: Fungicidal activity against Phytophthora infestans
Digitaria sanguinalis = experiment: Post-emergence herbicidal activity against Digitaria sanguinalis (hairy crabgrass)
Ipomoea purpurea = experiment: Post-emergence herbicidal activity against Ipomoea purpurea (common morning-glory)
Setaria viridis = experiment: Post-emergence herbicidal activity against Setaria viridis (green foxtail)
Echinochloa crus-galli = experiment: Post-emergence herbicidal activity against Echinochloa crus-galli (barnyard grass)
Abutilon theophrasti = experiment: Post-emergence herbicidal activity against Abutilon theophrasti (velvetleaf)

Question: Which results are given for CCC#CCOc1ccc(CCNC(=O)[C@@H](NS(C)(=O)=O)[C@@H](C)O)cc1OC?
Answer: EC80 (Plasmopara viticola): 109 µg/mL (≈ 264 µM); EC80 (Phytophthora infestans): 148 µg/mL (≈ 359 µM)

Question: For CCC#CCOc1ccc(CCNC(=O)C(NS(C)(=O)=O)C(CC)CC)cc1OC (racemic), which EC80 (Plasmopara viticola) is on record?
Answer: The EC80 was 16 µg/mL (≈ 36.5 µM).

Question: What about the EC80 (Phytophthora infestans) of the same compound?
Answer: The EC80 was 16 µg/mL (≈ 36.5 µM).

Question: With COC(=O)Cn1nnc2ccc(Oc3c(F)cc(C(F)(F)F)cc3Cl)cc21 as the compound, how does the ED85 (Digitaria sanguinalis) read?
Answer: Its ED85 is >8 g/ha.

Question: And the ED85 (Ipomoea purpurea)?
Answer: The ED85 was 0.5 g/ha.

Question: And the ED85 (Setaria viridis)?
Answer: Its ED85 is 2 g/ha.

Question: What about the ED85 (Echinochloa crus-galli) of the same compound?
Answer: The ED85 was 4 g/ha.

Question: What about the ED85 (Abutilon theophrasti) of the same compound?
Answer: The ED85 was >8 g/ha.

Question: For CCC#CCOc1ccc(CCNC(=O)[C@H](CC(C)C)NS(C)(=O)=O)cc1OC, which EC80 (Plasmopara viticola) is on record?
Answer: The EC80 was 18 µg/mL (≈ 42.4 µM).

Question: What about the EC80 (Phytophthora infestans) of the same compound?
Answer: The EC80 was 12 µg/mL (≈ 28.3 µM).

Question: Which results are given for CCC#CCOc1ccc(CCNC(=O)[C@H](CCC)NS(C)(=O)=O)cc1OC?
Answer: EC80 (Plasmopara viticola): 20 µg/mL (≈ 48.7 µM); EC80 (Phytophthora infestans): 60 µg/mL (≈ 146 µM)

Question: COC(=O)CCn1nnc2ccc(Oc3c(F)cc(C(F)(F)F)cc3Cl)cc21 was tested. Which ED85 (Digitaria sanguinalis) did it give?
Answer: Its ED85 is <32 g/ha.

Question: What about the ED85 (Ipomoea purpurea) of the same compound?
Answer: Its ED85 is <32 g/ha.

Question: What about the ED85 (Setaria viridis) of the same compound?
Answer: Its ED85 is 250 g/ha.

Question: And the ED85 (Echinochloa crus-galli)?
Answer: Its ED85 is 125 g/ha.

Question: And the ED85 (Abutilon theophrasti)?
Answer: The ED85 was <32 g/ha.

Question: COC(=O)[C@H](C)n1nnc2ccc(Oc3c(F)cc(C(F)(F)F)cc3Cl)cc21 was tested. Which ED85 (Digitaria sanguinalis) did it give?
Answer: Its ED85 is 125 g/ha.

Question: And the ED85 (Ipomoea purpurea)?
Answer: The ED85 was <32 g/ha.

Question: What about the ED85 (Setaria viridis) of the same compound?
Answer: Its ED85 is 125 g/ha.

Question: And the ED85 (Echinochloa crus-galli)?
Answer: The ED85 was 63 g/ha.

Question: What about the ED85 (Abutilon theophrasti) of the same compound?
Answer: The ED85 was <32 g/ha.

Question: What does the source list for CC(C(=O)O)n1nnc2ccc(Oc3c(F)cc(C(F)(F)F)cc3Cl)cc21 (centres undefined)?
Answer: ED85 (Digitaria sanguinalis): 8 g/ha; ED85 (Ipomoea purpurea): <0.5 g/ha; ED85 (Setaria viridis): 1 g/ha; ED85 (Echinochloa crus-galli): 4 g/ha; ED85 (Abutilon theophrasti): 1 g/ha

Question: How did the EC80 (Plasmopara viticola) turn out when CCC#CCOc1ccc(CCNC(=O)CNS(C)(=O)=O)cc1OC was run?
Answer: The EC80 was > 200 µg/mL.

Question: What about the EC80 (Phytophthora infestans) of the same compound?
Answer: Its EC80 is 148 µg/mL (≈ 402 µM).

Question: What does the source list for Fc1cc(C(F)(F)F)cc(Cl)c1Oc1ccc2nn[nH]c2c1?
Answer: ED85 (Digitaria sanguinalis): 250 g/ha; ED85 (Ipomoea purpurea): <32 g/ha; ED85 (Setaria viridis): >500 g/ha; ED85 (Echinochloa crus-galli): >500 g/ha; ED85 (Abutilon theophrasti): 250 g/ha

Question: Which results are given for CCC#CCOc1ccc(CCNC(=O)[C@H](CCC(=O)O)NS(C)(=O)=O)cc1OC?
Answer: EC80 (Plasmopara viticola): > 200 µg/mL; EC80 (Phytophthora infestans): > 200 µg/mL

Question: With CCC#CCOc1ccc(CCNC(=O)C(NS(C)(=O)=O)c2ccc(Cl)cc2)cc1OC (racemic) as the compound, how does the EC80 (Plasmopara viticola) read?
Answer: Its EC80 is 15 µg/mL (≈ 31.3 µM).

Question: And the EC80 (Phytophthora infestans)?
Answer: Its EC80 is 20 µg/mL (≈ 41.8 µM).

Question: Which EC80 (Plasmopara viticola) does the source give for CCC#CCOc1ccc(CCNC(=O)[C@H](CCSC)NS(C)(=O)=O)cc1OC here?
Answer: The EC80 was > 200 µg/mL.

Question: What about the EC80 (Phytophthora infestans) of the same compound?
Answer: The EC80 was > 200 µg/mL.

Question: What does the source list for CCC#CCOc1ccc(CCNC(=O)[C@@H](NS(C)(=O)=O)C(C)C)cc1OC?
Answer: EC80 (Plasmopara viticola): 2 µg/mL (≈ 4.87 µM); EC80 (Phytophthora infestans): 8 µg/mL (≈ 19.5 µM)

Question: For C#CCn1nnc2ccc(Oc3c(F)cc(C(F)(F)F)cc3Cl)cc21, which ED85 (Digitaria sanguinalis) is on record?
Answer: The ED85 was 500 g/ha.

Question: And the ED85 (Ipomoea purpurea)?
Answer: The ED85 was <32 g/ha.

Question: What about the ED85 (Setaria viridis) of the same compound?
Answer: The ED85 was 63 g/ha.

Question: And the ED85 (Echinochloa crus-galli)?
Answer: The ED85 was 250 g/ha.

Question: What about the ED85 (Abutilon theophrasti) of the same compound?
Answer: Its ED85 is 250 g/ha.

Question: How did the ED85 (Digitaria sanguinalis) turn out when CC(C(N)=O)n1nnc2ccc(Oc3c(F)cc(C(F)(F)F)cc3Cl)cc21 (centres undefined) was run?
Answer: The ED85 was 63 g/ha.

Question: And the ED85 (Ipomoea purpurea)?
Answer: The ED85 was <32 g/ha.

Question: What about the ED85 (Setaria viridis) of the same compound?
Answer: The ED85 was 63 g/ha.

Question: What about the ED85 (Echinochloa crus-galli) of the same compound?
Answer: The ED85 was 125 g/ha.

Question: What about the ED85 (Abutilon theophrasti) of the same compound?
Answer: The ED85 was <32 g/ha.

Question: With CCC#CCOc1ccc(CCNC(=O)[C@@H](NS(C)(=O)=O)[C@@H](C)CC)cc1OC as the compound, how does the EC80 (Plasmopara viticola) read?
Answer: Its EC80 is 2 µg/mL (≈ 4.71 µM).

Question: What about the EC80 (Phytophthora infestans) of the same compound?
Answer: Its EC80 is 3 µg/mL (≈ 7.07 µM).

Question: C=CCC(NS(C)(=O)=O)C(=O)NCCc1ccc(OCC#CCC)c(OC)c1 (racemic) was tested. Which EC80 (Plasmopara viticola) did it give?
Answer: The EC80 was 49 µg/mL (≈ 120 µM).

Question: And the EC80 (Phytophthora infestans)?
Answer: The EC80 was 9 µg/mL (≈ 22 µM).

Question: Which results are given for CCn1nnc2ccc(Oc3c(F)cc(C(F)(F)F)cc3Cl)cc21?
Answer: ED85 (Digitaria sanguinalis): >500 g/ha; ED85 (Ipomoea purpurea): <32 g/ha; ED85 (Setaria viridis): >500 g/ha; ED85 (Echinochloa crus-galli): >500 g/ha; ED85 (Abutilon theophrasti): <32 g/ha

Question: Which EC80 (Plasmopara viticola) does the source give for CCC#CCOc1ccc(CCNC(=O)[C@H](C)NS(C)(=O)=O)cc1OC here?
Answer: The EC80 was > 200 µg/mL.

Question: What about the EC80 (Phytophthora infestans) of the same compound?
Answer: The EC80 was > 200 µg/mL.
